pEC50: −log10 of the molar value. Like-named read-outs stand apart in the source and are kept apart here.
What was measured:
[1] = molecular target: T1, hS1P1R (hEdg1) membrane protein (Homo sapiens, UniProt P21453); test: hS1P1R GTPγS binding assay (Assay 3a); assay type: biochemical
T1 construct: purchased Lonza
Method in brief: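 Membranes (4 μg) expressing hS1P1R incubated 1 h at room temperature with 30 μM GDP, 0.1 nM [^35S]GTPγS, 0.25% fatty acid free BSA and serially diluted agonist in Tris-HCl pH 7.9/NaCl/MgCl2/EGTA buffer. Bound [^35S]GTPγS captured on WGA SPA beads (further 1 h) and counted.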

[2] = molecular target: T2, S1P1 (Homo sapiens, UniProt P21453); test: Tango β-arrestin recruitment assay in U2OS cells (Assay 2b); assay type: cell-based
T2 construct: host or cells: U2OS
T2 sequence (P32121 whole entry): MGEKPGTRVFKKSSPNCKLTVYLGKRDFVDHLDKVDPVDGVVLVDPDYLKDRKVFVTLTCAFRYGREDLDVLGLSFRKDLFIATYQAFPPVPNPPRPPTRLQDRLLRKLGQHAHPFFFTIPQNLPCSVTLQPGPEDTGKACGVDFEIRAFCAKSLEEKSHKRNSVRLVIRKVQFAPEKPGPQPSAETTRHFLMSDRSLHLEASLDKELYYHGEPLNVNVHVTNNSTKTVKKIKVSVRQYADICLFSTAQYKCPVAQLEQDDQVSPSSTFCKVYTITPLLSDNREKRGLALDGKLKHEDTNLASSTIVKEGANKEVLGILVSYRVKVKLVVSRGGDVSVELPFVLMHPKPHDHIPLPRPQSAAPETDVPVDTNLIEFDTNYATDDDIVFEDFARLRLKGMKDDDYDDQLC
T2 sequence (P21453 whole entry): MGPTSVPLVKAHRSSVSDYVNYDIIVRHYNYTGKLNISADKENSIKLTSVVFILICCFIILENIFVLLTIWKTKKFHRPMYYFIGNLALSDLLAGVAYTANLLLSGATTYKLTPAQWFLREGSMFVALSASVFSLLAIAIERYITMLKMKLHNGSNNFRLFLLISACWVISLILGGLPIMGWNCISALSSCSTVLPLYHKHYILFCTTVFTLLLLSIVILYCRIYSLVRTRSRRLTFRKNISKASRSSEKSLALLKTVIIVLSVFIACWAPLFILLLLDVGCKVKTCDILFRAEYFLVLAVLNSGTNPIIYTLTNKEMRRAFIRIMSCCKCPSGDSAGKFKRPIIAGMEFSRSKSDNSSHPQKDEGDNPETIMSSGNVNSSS
Method in brief: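 In this agonist-mode Tango assay, U2OS cells carrying S1P1 and the reporter were serum-starved 48 h, then exposed overnight at 37 °C to compound (10 points, 3-fold, top 1 μM, 1% DMSO). β-Lactamase F460/F530 ratio was normalized to 1 μM S1P, and EC50 was fitted.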

[3] = molecular target: T3, hS1PR5 (hEdg8) membrane protein (Homo sapiens, UniProt Q9H228); test: hS1P5R GTPγS binding assay (Assay 4); assay type: biochemical
T3 construct: expressed in transfected cells; host or cells: CHO
T3 sequence (Q9H228 whole entry): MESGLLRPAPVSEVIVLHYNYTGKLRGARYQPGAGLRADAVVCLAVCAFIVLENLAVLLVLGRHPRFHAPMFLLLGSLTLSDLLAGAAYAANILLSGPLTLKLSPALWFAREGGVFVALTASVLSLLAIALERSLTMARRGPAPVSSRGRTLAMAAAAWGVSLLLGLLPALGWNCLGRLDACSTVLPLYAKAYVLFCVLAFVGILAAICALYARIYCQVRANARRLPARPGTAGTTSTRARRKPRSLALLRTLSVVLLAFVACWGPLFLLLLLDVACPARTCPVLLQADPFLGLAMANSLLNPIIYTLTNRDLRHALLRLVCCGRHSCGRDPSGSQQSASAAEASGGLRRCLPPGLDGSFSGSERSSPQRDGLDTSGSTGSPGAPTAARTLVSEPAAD
Method in brief: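 Membranes (5 μg) from CHO cells expressing hS1PR5, incubated 1 h at room temperature with 30 μM GDP, 0.1 nM [35S]GTPγS, 0.25% fatty acid free BSA and serially diluted compound in pH 7.9 Tris buffer with MgCl2. WGA SPA beads added for another 1 h, then bound [35S]GTPγS counted by scintillation.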

[4] = molecular target: T4, S1P3 (Homo sapiens, UniProt Q99500); test: S1P3 Tango β-arrestin recruitment assay in HEK293 cells (Assay 5); assay type: cell-based
T4 construct: host or cells: HEK293 (transient transfection)
T4 sequence (P32121 whole entry): as the sequence (P32121 whole entry) above
T4 sequence (Q99500 whole entry): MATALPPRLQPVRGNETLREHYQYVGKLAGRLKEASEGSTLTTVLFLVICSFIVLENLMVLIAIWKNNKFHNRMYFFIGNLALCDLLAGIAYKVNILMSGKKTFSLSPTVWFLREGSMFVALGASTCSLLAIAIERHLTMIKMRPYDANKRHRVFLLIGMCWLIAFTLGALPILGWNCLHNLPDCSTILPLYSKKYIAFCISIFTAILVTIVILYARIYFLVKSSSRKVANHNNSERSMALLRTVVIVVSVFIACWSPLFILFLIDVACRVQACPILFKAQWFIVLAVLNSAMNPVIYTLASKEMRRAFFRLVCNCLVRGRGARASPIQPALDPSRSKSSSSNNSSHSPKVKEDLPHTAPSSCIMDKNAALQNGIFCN
Method in brief: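 HEK293 cells transiently expressing S1P3 fused via TEV-cleavable linker to tTA, with β-arrestin2–TEV, treated 16-18 h at 37 °C with compounds (top 10 μM, 10-point 3-fold, 1% DMSO). Luciferase reporter luminescence normalised to DMSO background and 5 μM S1P control as percent activity; EC50 from concentration-response curves.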

[5] = * = rEC50 measured rather than EC50, read-out: Assay 2b rEC50 (relative EC50, cells marked *)
[6] = * = rEC50 measured rather than EC50, read-out: Assay 5 rEC50 (relative EC50, cells marked *)

T1 sequence (P21453 whole entry): as the sequence (P21453 whole entry) above

| Structure (SMILES) | pEC50 [1] | pEC50 [2, 5] | pEC50 [3] | pEC50 ([4]; read-out: Assay 5 EC50) | pEC50 ([2]; read-out: Assay 2b EC50) | pEC50 [4, 6] |
| --- | --- | --- | --- | --- | --- | --- |
| CC(C)Nc1ncc(-c2nnc(-c3cc(F)c(OC[C@@H](N)CO)cc3Cl)s2)cn1 [Entry 90, (2S)-2-amino-3-{[5-chloro-2-fluoro-4-(5-{2-[(1-methylethyl)amino]pyrimidin-5-yl}-1,3,4-thiadiazol-2-yl)phenyl]oxy}propan-1-ol] | 6.60 to 7.30 | ≥ 8.00 | 5.55 to 6.60 | ≥ 6.60 |  |  |
| CC(C)Oc1ccc(-c2nnc(-c3cc(F)c(OC[C@H](N)CO)cc3Cl)s2)cc1C(N)=O [Entry 80, 5-[5-(4-{[(2R)-2-amino-3-hydroxypropyl]oxy}-2-chloro-5-fluorophenyl)-1,3,4-thiadiazol-2-yl]-2-[(1-methylethyl)oxy]benzamide] | 5.55 to 6.60 | 5.55 to 6.60 | 5.55 to 6.60 | < 5.00 |  |  |
| CC(C)Oc1ccc(-c2nnc(-c3cc(F)c(OCC(N)CO)cc3Cl)s2)cn1 (stereo not drawn) [Entry 19, 2-amino-3-{[5-chloro-2-fluoro-4-(5-{6-[(1-methylethyl)oxy]pyridin-3-yl}-1,3,4-thiadiazol-2-yl)phenyl]oxy}propan-1-ol] | 6.60 to 7.30 |  | 5.55 to 6.60 | < 6.60 | ≥ 8.00 |  |
| CC(C)Nc1ccc(-c2nnc(-c3cc(F)c(OC[C@@H](N)CO)cc3Cl)s2)cc1Cl [Entry 45, (2S)-2-amino-3-{[5-chloro-4-(5-{3-chloro-4-[(1-methylethyl)amino]phenyl}-1,3,4-thiadiazol-2-yl)-2-fluorophenyl]oxy}propan-1-ol] | ≥ 8.00 |  | 7.30 to 8.00 |  | ≥ 8.00 | < 6.60 |
| CC(C)Oc1ccc(-c2nnc(-c3cc(F)c(OC[C@H](N)[C@@H](C)OP(=O)(O)O)cc3Cl)s2)cc1Cl [Entry 51, (1R,2S)-2-amino-3-{[5-chloro-4-(5-{3-chloro-4-[(1-methylethyl)oxy]phenyl}-1,3,4-thiadiazol-2-yl)-2-fluorophenyl]oxy}-1-methylpropyl dihydrogen phosphate] | ≥ 8.00 |  | ≥ 8.00 | ≥ 6.60 | ≥ 8.00 |  |
| CC(C)Nc1ncc(-c2nnc(-c3cc(F)c(OC[C@H](N)CO)cc3Cl)s2)cn1 [Entry 89, (2R)-2-amino-3-{[5-chloro-2-fluoro-4-(5-{2-[(1-methylethyl)amino]pyrimidin-5-yl}-1,3,4-thiadiazol-2-yl)phenyl]oxy}propan-1-ol] | 6.60 to 7.30 |  | 5.55 to 6.60 | < 5.00 | 7.30 to 8.00 |  |
| CC(C)Nc1ccc(-c2nnc(-c3cc(F)c(OC[C@@H](N)[C@H](C)OP(=O)(O)O)cc3Cl)s2)cn1 [Entry 93, (1S,2R)-2-amino-3-{[5-chloro-2-fluoro-4-(5-{6-[(1-methylethyl)amino]pyridin-3-yl}-1,3,4-thiadiazol-2-yl)phenyl]oxy}-1-methylpropyl dihydrogen phosphate] | ≥ 8.00 | ≥ 8.00 | 7.30 to 8.00 | < 6.60 |  |  |
| COCCOc1ccc(-c2nnc(-c3cc(F)c(OC[C@H](N)CO)cc3Cl)s2)cc1C#N [Entry 78, 5-[5-(4-{[(2R)-2-amino-3-hydroxyporpyl]oxy}-2-chloro-5-fluorophenyl)-1,3,4-thiadiazol-2-yl]-2-{[2-(methyloxy)ethyl]oxy}benzonitrile] | 6.60 to 7.30 |  | 5.55 to 6.60 | < 5.00 | 7.30 to 8.00 |  |
| CC(C)N(C)c1cc(-c2nnc(-c3cc(F)c(OC[C@H](N)CO)cc3Cl)s2)cc(Cl)n1 [Entry 21, (2R)-2-amino-3-{[5-chloro-4-(5-{2-chloro-6-[methyl(1-methylethyl)amino]pyridin-4-yl}-1,3,4-thiadiazol-2-yl)-2-fluorophenyl)oxy}propan-1-ol] | 6.60 to 7.30 |  | 6.60 to 7.30 | < 5.00 | 7.30 to 8.00 |  |
| CC(C)Nc1ccc(-c2nnc(-c3cc(F)c(OC[C@@H](N)[C@@H](C)O)cc3Cl)s2)cn1 [Entry 68, (2R,3R)-3-amino-4-{[5-chloro-2-fluoro-4-(5-{6-[(1-methylethyl)amino]pyridin-3-yl}-1,3,4-thiadiazol-2-yl)phenyl]oxy}butan-2-ol] | 6.60 to 7.30 |  | 5.55 to 6.60 | < 5.00 | ≥ 8.00 |  |
| CC(C)Nc1ccc(-c2nnc(-c3cc(F)c(OC[C@H](N)[C@H](C)OP(=O)(O)O)cc3Cl)s2)cn1 [Entry 54, (1S,2S)-2-amino-3-{[5-chloro-2-fluoro-4-(5-{6-[(1-methylethyl)amino]pyridin-3-yl}-1,3,4-thiadiazol-2-yl)phenyl]oxy}-1-methylpropyl dihydrogen phosphate] | ≥ 8.00 |  | 7.30 to 8.00 | < 6.60 | ≥ 8.00 |  |
| CC(C)Oc1ccc(-c2nnc(-c3cc(F)c(OC[C@H](N)[C@@H](C)OP(=O)(O)O)cc3Cl)s2)cc1C#N [Entry 50, (1R,2S)-2-amino-3-{[5-chloro-4-(5-{3-cyano-4-[(1-methylethyl)oxy]phenyl}-1,3,4-thiadiazol-2-yl)-2-fluorophenyl]oxy}-1-methylpropyl dihydrogen phosphate] | ≥ 8.00 |  | ≥ 8.00 | ≥ 6.60 | ≥ 8.00 |  |
| CC(C)Oc1ccc(-c2nnc(-c3cc(F)c(OC[C@@H](N)[C@@H](C)O)cc3Cl)s2)cc1C#N [Entry 86, 5-[5-(4-{[(2R,3R)-2-amino-3-hydroxybutyl]oxy}-2-chloro-5-fluorophenyl)-1,3,4-thiadiazol-2-yl]-2-[(1-methylethyl)oxy]benzonitrile] | ≥ 8.00 |  | 7.30 to 8.00 |  | ≥ 8.00 | < 6.60 |
| CC(C)Oc1ccc(-c2nnc(-c3cc(F)c(OC[C@H](N)[C@H](C)OP(=O)(O)O)cc3Cl)s2)cc1C#N [Entry 53, (1S,2S)-2-amino-3-{[5-chloro-4-(5-{3-cyano-4-[(1-methylethyl)oxy]phenyl}-1,3,4-thiadiazol-2-yl)-2-fluorophenyl]oxy}-1-methylpropyl dihydrogen phosphate] | ≥ 8.00 |  | ≥ 8.00 | < 5.00 | ≥ 8.00 |  |
| Cc1cc(-c2nnc(-c3cc(F)c(OC[C@@H](N)[C@H](C)O)cc3Cl)s2)cc(NC(C)C)n1 [Entry 98, (2S,3R)-3-amino-4-{[5-chloro-2-fluoro-4-(5-{2-methyl-6-[(1-methylethyl)amino]pyridin-4-yl}-1,3,4-thiadiazol-2-yl)phenyl]oxy}butan-2-ol] | ≥ 8.00 |  | 6.60 to 7.30 | ≥ 6.60 | ≥ 8.00 |  |
| N[C@H](CO)COc1cc(Cl)c(-c2nnc(-c3cccc(Cl)c3)s2)cc1F [Entry 15, (2R)-2-amino-3-({5-chloro-4-[5-(3-chlorophenyl)-1,3,4-thiadiazol-2-yl]-2-fluorophenyl}oxy)propan-1-ol] | 5.55 to 6.60 |  | 5.55 to 6.60 | < 5.00 | 7.30 to 8.00 |  |
| CC(C)Nc1ccc(-c2nnc(-c3cc(F)c(OC[C@@H](N)COP(=O)(O)O)cc3Cl)s2)cn1 [Entry 47, (2R)-2-amino-3-{[5-chloro-2-fluoro-4-(5-{6-[(1-methylethyl)amino]pyridin-3-yl}-1,3,4-thiadiazol-2-yl)phenyl]oxy}propyl dihydrogen phosphate] | ≥ 8.00 |  | ≥ 8.00 | ≥ 6.60 | ≥ 8.00 |  |
| Cc1nc(-c2nnc(-c3cc(F)c(OC[C@H](N)[C@@H](C)O)cc3Cl)s2)ccc1NC(C)C [Entry 103, (2R,3S)-3-amino-4-{[5-chloro-2-fluoro-4-(5-{6-methyl-5-[(1-methylethyl)amino]pyridin-2-yl}-1,3,4-thiadiazol-2-yl)phenyl]oxy}butan-2-ol] | 7.30 to 8.00 |  | 7.30 to 8.00 | < 6.60 | 7.30 to 8.00 |  |
| CC(C)Oc1ccc(-c2nnc(-c3cc(F)c(OC[C@@H](N)CO)cc3Cl)s2)cn1 [Entry 38, (2S)-2-amino-3-{[5-chloro-2-fluoro-4-(5-{6-[(1-methylethyl)oxy]pyridin-3-yl}-1,3,4-thiadiazol-2-yl)phenyl]oxy}propan-1-ol] | 7.30 to 8.00 |  | 5.55 to 6.60 | ≥ 6.60 | ≥ 8.00 |  |
| CC(C)Oc1ccc(-c2nnc(-c3cc(F)c(OC[C@H](N)[C@H](C)O)cc3Cl)s2)cc1C#N [Entry 83, 5-[5-(4-{[(2S,3S)-2-amino-3-hydroxybutyl]oxy}-2-chloro-5-fluorophenyl)-1,3,4-thiadiazol-2-yl]-2-[(1-methylethyl)oxy]benzonitrile] | ≥ 8.00 |  | 7.30 to 8.00 | < 5.00 | ≥ 8.00 |  |
| CC(C)Nc1ncc(-c2nnc(-c3cc(F)c(OC[C@H](N)CO)cc3Cl)s2)cc1Cl [Entry 81, (2R)-2-amino-3-{[5-chloro-4-(5-{5-chloro-6-[(1-methylethyl)amino]pyridin-3-yl}-1,3,4-thiadiazol-2-yl)-2-fluorophenyl]oxy}propan-1-ol] | 7.30 to 8.00 |  | 5.55 to 6.60 | < 5.00 | 7.30 to 8.00 |  |

— patent US20100249071A1, “Modulators of S1P and Methods of Making And Using” (Exelixis, Inc., priority 2009, published 2010)
